Experimental data: ChEMBL document CHEMBL1150975, “Biochemical and three-dimensional-structural study of the specific inhibition of protein kinase CK2 by [5-oxo-5,6-dihydroindolo-(1,2-a)quinazolin-7-yl]acetic acid (IQA)” (Biochem J, 2003)

Columns and labels:
[1] = molecular target: Platelet-derived growth factor receptor beta (Homo sapiens) (UniProt P09619); test: Percent residual PDGFRbeta activity in the presence of 10uM inhibitor
[2] = molecular target: Insulin-like growth factor 1 receptor (Homo sapiens) (UniProt P08069); test: Percent residual IGF-1R activity in the presence of 10uM inhibitor
[3] = molecular target: RAF proto-oncogene serine/threonine-protein kinase (Homo sapiens) (UniProt P04049); test: Percent residual c-Raf-1 activity in the presence of 10uM inhibitor
[4] = molecular target: Hepatocyte growth factor receptor (Homo sapiens) (UniProt P08581); test: Percent residual c-Met activity in the presence of 10uM inhibitor
[5] = molecular target: Proto-oncogene tyrosine-protein kinase Src (Homo sapiens) (UniProt P12931); test: Percent residual c-Src activity in the presence of 10uM inhibitor
[6] = molecular target: cAMP-dependent protein kinase (PKA) (Homo sapiens, UniProt P22694+P17612+P22612); test: Inhibition of PKA; assay type: protein assay
[7] = molecular target: Receptor tyrosine-protein kinase erbB-2 (Homo sapiens) (UniProt P04626); test: Percent residual Her-2 activity in the presence of 10uM inhibitor
Sequence of Receptor tyrosine-protein kinase erbB-2 (Homo sapiens) (P04626 whole entry): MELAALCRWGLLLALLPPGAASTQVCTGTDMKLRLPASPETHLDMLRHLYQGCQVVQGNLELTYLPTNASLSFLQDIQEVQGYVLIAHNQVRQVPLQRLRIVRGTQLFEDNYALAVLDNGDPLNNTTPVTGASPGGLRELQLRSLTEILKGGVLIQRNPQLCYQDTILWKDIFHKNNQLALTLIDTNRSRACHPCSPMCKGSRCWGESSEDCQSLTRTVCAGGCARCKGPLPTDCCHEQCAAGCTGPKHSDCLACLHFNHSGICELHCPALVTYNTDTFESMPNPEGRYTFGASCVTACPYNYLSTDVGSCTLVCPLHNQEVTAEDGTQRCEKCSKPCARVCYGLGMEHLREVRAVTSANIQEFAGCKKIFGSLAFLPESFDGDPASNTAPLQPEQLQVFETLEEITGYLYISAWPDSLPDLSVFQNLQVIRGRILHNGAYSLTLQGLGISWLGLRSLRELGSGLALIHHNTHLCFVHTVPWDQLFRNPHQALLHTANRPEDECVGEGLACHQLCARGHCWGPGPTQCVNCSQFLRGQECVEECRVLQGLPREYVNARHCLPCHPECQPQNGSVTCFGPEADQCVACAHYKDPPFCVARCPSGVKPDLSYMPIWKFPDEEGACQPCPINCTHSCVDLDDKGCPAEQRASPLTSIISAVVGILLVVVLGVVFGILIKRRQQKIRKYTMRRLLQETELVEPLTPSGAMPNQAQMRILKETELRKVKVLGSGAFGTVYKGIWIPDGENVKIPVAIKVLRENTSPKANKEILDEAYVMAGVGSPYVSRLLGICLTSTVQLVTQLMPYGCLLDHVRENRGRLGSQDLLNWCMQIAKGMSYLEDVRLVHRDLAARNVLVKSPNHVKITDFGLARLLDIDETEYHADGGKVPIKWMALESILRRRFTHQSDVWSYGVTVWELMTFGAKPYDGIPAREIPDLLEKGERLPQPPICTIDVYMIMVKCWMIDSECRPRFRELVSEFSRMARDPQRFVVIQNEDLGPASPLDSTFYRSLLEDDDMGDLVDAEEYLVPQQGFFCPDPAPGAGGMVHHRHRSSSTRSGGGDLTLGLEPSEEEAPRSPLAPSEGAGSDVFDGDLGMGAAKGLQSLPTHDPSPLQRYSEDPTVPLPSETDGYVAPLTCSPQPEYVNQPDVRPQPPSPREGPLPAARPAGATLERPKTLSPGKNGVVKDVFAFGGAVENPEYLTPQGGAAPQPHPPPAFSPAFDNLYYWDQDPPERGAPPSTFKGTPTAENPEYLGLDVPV

Sequence of Proto-oncogene tyrosine-protein kinase Src (Homo sapiens) (P12931 2-536 limits assumed): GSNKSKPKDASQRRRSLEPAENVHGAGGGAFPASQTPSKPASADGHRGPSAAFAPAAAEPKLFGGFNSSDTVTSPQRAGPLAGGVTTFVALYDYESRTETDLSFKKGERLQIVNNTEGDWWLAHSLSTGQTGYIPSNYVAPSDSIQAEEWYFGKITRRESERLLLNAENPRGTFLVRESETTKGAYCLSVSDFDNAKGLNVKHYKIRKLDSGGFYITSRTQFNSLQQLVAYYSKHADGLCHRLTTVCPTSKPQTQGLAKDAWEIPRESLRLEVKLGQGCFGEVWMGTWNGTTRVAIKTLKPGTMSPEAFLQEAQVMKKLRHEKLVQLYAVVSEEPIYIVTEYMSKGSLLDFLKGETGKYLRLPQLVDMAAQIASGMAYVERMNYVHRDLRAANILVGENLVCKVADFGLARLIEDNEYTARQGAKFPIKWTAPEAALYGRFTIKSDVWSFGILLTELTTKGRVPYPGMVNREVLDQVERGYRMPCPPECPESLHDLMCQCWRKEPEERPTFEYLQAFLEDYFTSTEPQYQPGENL
Sequence of Insulin-like growth factor 1 receptor (Homo sapiens) (P08069 31-736 limits assumed): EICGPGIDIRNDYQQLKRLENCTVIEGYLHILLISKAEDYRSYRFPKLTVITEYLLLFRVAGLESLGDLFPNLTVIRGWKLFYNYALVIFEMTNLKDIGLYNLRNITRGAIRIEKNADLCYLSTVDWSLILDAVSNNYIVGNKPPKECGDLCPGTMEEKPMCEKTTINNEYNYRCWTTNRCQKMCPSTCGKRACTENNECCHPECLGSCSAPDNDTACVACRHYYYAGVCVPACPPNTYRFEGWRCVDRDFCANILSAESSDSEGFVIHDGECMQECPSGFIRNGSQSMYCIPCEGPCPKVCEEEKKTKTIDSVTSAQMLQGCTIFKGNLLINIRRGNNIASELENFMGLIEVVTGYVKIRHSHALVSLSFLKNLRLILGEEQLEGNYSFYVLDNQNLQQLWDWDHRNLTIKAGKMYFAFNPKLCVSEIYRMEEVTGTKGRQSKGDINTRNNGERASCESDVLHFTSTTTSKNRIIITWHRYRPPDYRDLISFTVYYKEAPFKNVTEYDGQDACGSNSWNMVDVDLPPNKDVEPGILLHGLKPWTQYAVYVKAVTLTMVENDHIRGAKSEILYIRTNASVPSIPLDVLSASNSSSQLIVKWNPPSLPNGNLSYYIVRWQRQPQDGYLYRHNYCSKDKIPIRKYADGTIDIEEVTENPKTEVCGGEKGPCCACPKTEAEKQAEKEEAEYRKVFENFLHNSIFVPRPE
Sequence of Insulin-like growth factor 1 receptor (Homo sapiens) (P08069 741-1367 limits assumed): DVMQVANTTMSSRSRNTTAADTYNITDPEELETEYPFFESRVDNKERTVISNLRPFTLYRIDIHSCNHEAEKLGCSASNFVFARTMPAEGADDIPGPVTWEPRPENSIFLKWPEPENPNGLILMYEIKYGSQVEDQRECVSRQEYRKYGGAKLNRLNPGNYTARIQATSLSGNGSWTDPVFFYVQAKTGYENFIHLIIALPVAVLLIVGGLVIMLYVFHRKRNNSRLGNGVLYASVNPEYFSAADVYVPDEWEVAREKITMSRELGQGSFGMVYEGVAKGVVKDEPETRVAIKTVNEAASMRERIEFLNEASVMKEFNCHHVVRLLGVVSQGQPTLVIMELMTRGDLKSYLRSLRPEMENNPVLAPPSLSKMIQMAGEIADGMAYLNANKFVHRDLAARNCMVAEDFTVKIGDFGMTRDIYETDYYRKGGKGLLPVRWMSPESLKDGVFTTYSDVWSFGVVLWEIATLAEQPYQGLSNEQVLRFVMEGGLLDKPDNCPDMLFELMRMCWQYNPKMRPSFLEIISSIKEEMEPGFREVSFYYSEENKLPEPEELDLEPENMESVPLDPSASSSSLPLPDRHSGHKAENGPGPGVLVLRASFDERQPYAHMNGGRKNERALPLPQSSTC
Sequence of RAF proto-oncogene serine/threonine-protein kinase (Homo sapiens) (P04049 whole entry): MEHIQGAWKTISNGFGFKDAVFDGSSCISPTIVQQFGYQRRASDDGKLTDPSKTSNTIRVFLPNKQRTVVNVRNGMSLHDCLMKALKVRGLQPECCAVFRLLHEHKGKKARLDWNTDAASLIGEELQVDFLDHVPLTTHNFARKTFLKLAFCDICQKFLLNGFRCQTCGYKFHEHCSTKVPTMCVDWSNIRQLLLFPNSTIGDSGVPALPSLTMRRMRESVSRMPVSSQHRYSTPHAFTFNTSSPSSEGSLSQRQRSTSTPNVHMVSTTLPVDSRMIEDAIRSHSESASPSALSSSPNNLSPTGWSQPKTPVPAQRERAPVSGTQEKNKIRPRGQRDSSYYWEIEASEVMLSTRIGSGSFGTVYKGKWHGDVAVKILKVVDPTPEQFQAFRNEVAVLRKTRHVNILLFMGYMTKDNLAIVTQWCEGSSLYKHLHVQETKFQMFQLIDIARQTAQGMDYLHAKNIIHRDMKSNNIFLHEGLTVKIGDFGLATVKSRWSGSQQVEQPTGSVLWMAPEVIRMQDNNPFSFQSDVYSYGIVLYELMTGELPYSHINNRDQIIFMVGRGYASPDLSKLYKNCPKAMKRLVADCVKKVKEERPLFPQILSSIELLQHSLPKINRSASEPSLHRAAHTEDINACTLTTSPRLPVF
Sequence of Platelet-derived growth factor receptor beta (Homo sapiens) (P09619 whole entry): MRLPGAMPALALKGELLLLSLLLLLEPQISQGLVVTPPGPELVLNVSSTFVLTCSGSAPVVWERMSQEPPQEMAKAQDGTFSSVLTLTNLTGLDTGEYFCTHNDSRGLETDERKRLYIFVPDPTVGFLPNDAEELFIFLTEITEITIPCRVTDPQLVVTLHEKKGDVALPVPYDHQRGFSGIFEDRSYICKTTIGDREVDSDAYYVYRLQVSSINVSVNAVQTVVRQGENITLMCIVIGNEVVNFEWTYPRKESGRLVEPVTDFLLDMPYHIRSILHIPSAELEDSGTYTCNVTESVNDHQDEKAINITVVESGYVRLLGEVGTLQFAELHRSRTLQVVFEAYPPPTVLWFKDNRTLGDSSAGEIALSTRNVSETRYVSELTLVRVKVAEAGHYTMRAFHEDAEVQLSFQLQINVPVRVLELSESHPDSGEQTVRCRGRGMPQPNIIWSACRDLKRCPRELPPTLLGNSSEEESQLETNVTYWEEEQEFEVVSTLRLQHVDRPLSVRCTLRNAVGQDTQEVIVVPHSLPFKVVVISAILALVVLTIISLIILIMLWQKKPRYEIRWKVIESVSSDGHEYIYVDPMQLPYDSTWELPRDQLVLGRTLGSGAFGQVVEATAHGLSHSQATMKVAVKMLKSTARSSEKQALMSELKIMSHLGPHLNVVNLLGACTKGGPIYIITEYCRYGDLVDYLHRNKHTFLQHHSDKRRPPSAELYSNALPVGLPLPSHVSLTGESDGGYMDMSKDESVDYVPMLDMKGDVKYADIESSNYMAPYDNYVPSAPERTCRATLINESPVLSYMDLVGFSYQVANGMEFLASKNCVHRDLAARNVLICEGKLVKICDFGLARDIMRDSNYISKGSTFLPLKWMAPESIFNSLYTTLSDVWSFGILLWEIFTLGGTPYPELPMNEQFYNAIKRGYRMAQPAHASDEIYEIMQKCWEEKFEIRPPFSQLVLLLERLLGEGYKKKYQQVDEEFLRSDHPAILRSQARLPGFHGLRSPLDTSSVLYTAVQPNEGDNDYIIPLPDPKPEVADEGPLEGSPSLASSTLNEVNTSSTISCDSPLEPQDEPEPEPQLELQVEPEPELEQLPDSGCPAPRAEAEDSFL

O=C(O)Cc1c2ccccc2n2c1[nH]c(=O)c1ccccc12
Activity [1]: 80%
Activity [2]: 80%
Activity [3]: 80%
Activity [4]: 80%
Activity [5]: 80%
IC50 [6]: 16 µM
Activity [7]: 80%
